Here are results for four compounds from patent US5583218A, “Carbapenem derivatives” (Daiichi Pharmaceutical Co., Ltd., priority 1988, dated 1996).

One assay has as its system S. aureus 209P. Kind of assay: Minimum inhibitory concentration against S. aureus 209P. The class given is cell-based. The following applies: Staphylococcus aureus.
A further assay concerns E. coli NIHJ. Description: Minimum inhibitory concentration against E. coli NIHJ. In kind it is cell-based. The following applies: Escherichia coli.
In the next assay the test system is Ps. aeruginosa 32233. Kind of assay: Minimum inhibitory concentration against Ps. aeruginosa 32233. The class given is cell-based. Particulars: Pseudomonas aeruginosa.
In another assay the test system is Ser. marcescens 10104. Description: Minimum inhibitory concentration against Ser. marcescens 10104. The class given is cell-based, Serratia marcescens.
The next assay concerns C. difficile GAI-0747. Kind of assay: Minimum inhibitory concentration against C. difficile GAI-0747. Particulars: Clostridioides difficile, GAI0747. The class given is cell-based, Clostridium difficile.
A further assay deals with Ent. cloacae 03400. Description: Minimum inhibitory concentration against Ent. cloacae 03400. The class given is cell-based. Particulars: Enterobacter cloacae.
Assay [1] relates to gram-positive and gram-negative bacteria, obligate anaerobes, strains resistant to penicillins and cepharosporins. The following applies: bacteria resistant to penicillin and cepharosporin antibiotics; background art; cited from earlier work.
Setting [2] is: Serratia marcescens, Ser. marcescens 10104, read-out: Minimum Inhibitory Concentration (MIC).

Converted amounts (≈) assume the structure as drawn. Read-outs that look alike come from different tables or passages of the source.

As to `C[C@@H](O)[C@H]1C(=O)N2C(C(=O)O)=C(SC3Cc4cncn4C3)[C@H](C)[C@H]12` (single isomer, unassigned) [Compound 1], the MIC was under 0.1 µg/mL in the assay on S. aureus 209P; under 0.1 µg/mL in the assay on E. coli NIHJ; 6.25 µg/mL (≈ 17.9 µM) in the assay with Ps. aeruginosa 32233; under 0.1 µg/mL with Ser. marcescens 10104 (setting [2]); 3.13 µg/mL (≈ 8.96 µM) in the assay with C. difficile GAI-0747; under 0.1 µg/mL in the assay with Ent. cloacae 03400.
`C[C@@H](O)[C@H]1C(=O)N2C(C(=O)O)=C(SC3Cc4nccn4C3)[C@H](C)[C@H]12` (single isomer, unassigned) [Compound 2]: the MIC against S. aureus 209P is under 0.1 µg/mL; in the assay on E. coli NIHJ it was under 0.1 µg/mL; against Ps. aeruginosa 32233 it was 6.25 µg/mL (≈ 17.9 µM); with Ser. marcescens 10104 (setting [2]) it was under 0.1 µg/mL; in the assay on C. difficile GAI-0747, 1.56 µg/mL (≈ 4.46 µM); in the assay on Ent. cloacae 03400 it was under 0.1 µg/mL.
For `C[C@@H](O)[C@H]1C(=O)N2C(C(=O)O)=C(SCCN=CN)C[C@H]12` [MK-0787, reference compound], the MIC against S. aureus 209P is under 0.1 µg/mL; with E. coli NIHJ it was 0.2 µg/mL (≈ 0.668 µM); against Ps. aeruginosa 32233 it was 1.56 µg/mL (≈ 5.21 µM); in the assay with Ser. marcescens 10104 (Serratia marcescens, 10104, read-out: Minimum Inhibitory Concentration (MIC)), 1.56 µg/mL (≈ 5.21 µM); against C. difficile GAI-0747, 50 µg/mL (≈ 167 µM); in the assay on Ent. cloacae 03400, 0.78 µg/mL (≈ 2.61 µM).
Take `C[C@@H](O)[C@H]1C(=O)N2C(C(=O)O)=C(SCCN)C[C@H]12` [Thienamycin]: the antibacterial activity result in assay [1] was “effective even against bacteria resistant to penicillin and cepharosporin antibiotics”.
